From patent US4213994A, “Imidazolyl-(2)-carbinols having hypolipidemic action and process for preparing them” (Hoechst Aktiengesellschaft, priority 1971, dated 1980)
Read-outs that look alike come from different tables or passages of the source.

What was measured:
triton-hyperlipidemia = assay: Triton-Hyperlipidemia of the male rat (inhibition of triton-hyperlipidemia); format: in vivo; settings: 4-days pre-treatment; for Inhibition of triton-hyperlipidemia, Serum-cholesterin / Inhibition of triton-hyperlipidemia, Serum-triglyceride: 300 mg/kg Triton WR 1339 i.p., Triton control = 100%
Method: 2. Triton-Hyperlipidemia of the male rat
The influence of a 4-days pre-treatment with the compound of Example 1 on the formation of hyperlipidemia produced by i.p. application of 300 mg/kg of Triton ® WR 1339 was tested in comparison to a control group (=100%) which had only been treated with Triton.

[1] = acute toxicity, LD50 determined on the mouse upon oral administration; settings: in vivo
Text: While having an extremely low acute toxicity (cf. LD50 -values in Table I), the imidazolyl-(2)-carbinols reduce the lipid level in the serum and reduce artificially produced hyperlipidemia.
The values in brackets of the first column designate the LD50values
(§1) in g/kg, determined on the mouse upon oral administration. The values

serum lipid level = assay: Standard test on a male rat with normal serum lipid level (hypolipidemic action, 8 peroral administrations); format: in vivo; settings: for change in vivo at 30 mg/kg / change in vivo at 100 mg/kg / change in vivo at 10 mg/kg: Rattus norvegicus, po, 192 h
Method: 1. Standard test on a male rat with normal serum lipid level
The period of time used for the experiment was 8 days. Administration was effected once daily with the aid of an oesophageal sound with doses of 100, 30 and 10 mg/kg, respectively. In general, blood was withdrawn prior to and after the treatment and the concentration of cholesterin was determined in the serum according to the method described by Lauber and Richterich and that of triglycerides according to the method described by Eggstein and Kreutz.
as §1
before the oblique stroke of the other columns denote the percentual
change of the posterior value (value after the treatment) referred to the
anterior value (starting value before the treatment) of the group of
preparations, the anterior value being 100%; the values behind the obliqu
stroke indicate the percentual change of the posterior value of the group
treated with reference to the posterior value (= 100%) of a placebo group

[2] = test system: dietetic hypercholesterinemia; assay: Dietetic hypercholesterinemia of the male rat (inhibition of dietetic hypercholesterinemia); format: in vivo; settings: 100 mg/kg p.o. once daily
Method: 3. Dietetic hypercholesterinemia of the male rat
Hypercholesterinemia was produced by the addition of 2% of cholesterin and 20% of coconut fat (Palmin) to the normal fodder. The rise of the cholesterin level was determined by comparison with a control group (=100%) which had been given normal fodder only. (Line 1 in Table III). The animals of the preparation group obtained at the same time of the begin of the diet daily once 100 mg/kg p.o. of the compound of Example 1. […]

[3] = solubility in the usual solvents; format: physicochemical
[4] = 10 mg/kg/day p.o., 8 administrations
[5] = 30 mg/kg/day p.o., 8 administrations, value before the oblique stroke (anterior value = 100%), read-out: % change of Serum-Cholesterin, after treatment vs starting value before treatment
[6] = 30 mg/kg/day p.o., 8 administrations, value before the oblique stroke (anterior value = 100%), read-out: % change of Serum-triglycerides, after treatment vs starting value before treatment
[7] = 30 mg/kg/day p.o., 8 administrations, value behind the oblique stroke (placebo posterior value = 100%), read-out: % change of Serum-Cholesterin, treated group vs placebo group
[8] = 30 mg/kg/day p.o., 8 administrations, value behind the oblique stroke (placebo posterior value = 100%), read-out: % change of Serum-triglycerides, treated group vs placebo group
[9] = 100 mg/kg/day p.o., 8 administrations, value before the oblique stroke (anterior value = 100%), read-out: % change of Serum-Cholesterin, after treatment vs starting value before treatment
[10] = 100 mg/kg/day p.o., 8 administrations, value before the oblique stroke (anterior value = 100%), read-out: % change of Serum-triglycerides, after treatment vs starting value before treatment
[11] = 100 mg/kg/day p.o., 8 administrations, value behind the oblique stroke (placebo posterior value = 100%), read-out: % change of Serum-Cholesterin, treated group vs placebo group
[12] = 100 mg/kg/day p.o., 8 administrations, value behind the oblique stroke (placebo posterior value = 100%), read-out: % change of Serum-triglycerides, treated group vs placebo group
[13] = read-out: % change of Serum-Cholesterin, after treatment vs starting value before treatment
[14] = read-out: % change of Serum-triglycerides, after treatment vs starting value before treatment
[15] = read-out: % change of Serum-triglycerides, treated group vs placebo group

Row | Compound | LD50 [1] | change in vivo at 30 mg/kg (serum lipid level; [5]) | change in vivo at 30 mg/kg (serum lipid level; [6]) | change in vivo at 30 mg/kg (serum lipid level; [8]) | change in vivo at 100 mg/kg (serum lipid level; [9]) | change in vivo at 100 mg/kg (serum lipid level; [10]) | change in vivo at 100 mg/kg (serum lipid level; [11]) | change in vivo at 100 mg/kg (serum lipid level; [12]) | further results
1 | CCOC(=O)C(C)(C)Oc1ccc(Cl)cc1 [Clofibrate, 2-(p-chlorophenoxy)-isobutyric acid ethyl ester, reference compound] | 2000 to 2500 mg/kg | -5% | -4% | -7% | -22% | -30% | -13% | -30% | Inhibition of triton-hyperlipidemia, Serum-cholesterin (in words) (triton-hyperlipidemia; 10 mg/kg/day p.o.): ineffective; Inhibition of triton-hyperlipidemia, Serum-triglyceride (in words) (triton-hyperlipidemia; 10 mg/kg/day p.o.): ineffective; Inhibition of triton-hyperlipidemia, Serum-cholesterin (triton-hyperlipidemia; 100 mg/kg/day p.o.): -29%; Inhibition of triton-hyperlipidemia, Serum-triglyceride (triton-hyperlipidemia; 100 mg/kg/day p.o.): -16%; change of Serum-Cholesterin (in words) (serum lipid level; [4]): ineffective; change of Serum-triglycerides (in words) (serum lipid level; [4]): ineffective; change in vivo at 30 mg/kg (serum lipid level; [7]): -8%
2 | OC(c1ccccc1)(c1nccn1Cc1ccccc1)c1nccn1Cc1ccccc1 [Example 1, Bis-[1-benzylimidazolyl-(2)]-phenyl-carbinole] | > 4000 mg/kg | -33% | -25% | -10% | – | – | – | – | % change of the total cholesterin content in the serum, inhibition due to preparation (diet = 100%) ([2]; after 8 days): -23%; % change of the total cholesterin content in the serum, inhibition due to preparation (diet = 100%) ([2]; after 20 days): -19%; % change of the total cholesterin content in the serum, inhibition due to preparation (diet = 100%) ([2]; after 33 days): -9%; Inhibition of triton-hyperlipidemia, Serum-cholesterin (triton-hyperlipidemia; 10 mg/kg/day p.o.): -31%; Inhibition of triton-hyperlipidemia, Serum-triglyceride (triton-hyperlipidemia; 10 mg/kg/day p.o.): -40%; Inhibition of triton-hyperlipidemia, Serum-cholesterin (triton-hyperlipidemia; 100 mg/kg/day p.o.): -28%; Inhibition of triton-hyperlipidemia, Serum-triglyceride (triton-hyperlipidemia; 100 mg/kg/day p.o.): -35%; change in vivo at 10 mg/kg (serum lipid level; 10 mg/kg/day p.o., 8 administrations, value before the oblique stroke (anterior value = 100%), read-out: % change of Serum-Cholesterin, after treatment vs starting value before treatment): -10%; change in vivo at 10 mg/kg (serum lipid level; 10 mg/kg/day p.o., 8 administrations, value behind the oblique stroke (placebo posterior value = 100%), read-out: % change of Serum-Cholesterin, treated group vs placebo group): -12%; change in vivo at 10 mg/kg (serum lipid level; 10 mg/kg/day p.o., 8 administrations, value behind the oblique stroke (placebo posterior value = 100%), read-out: % change of Serum-triglycerides, treated group vs placebo group): -13%; change in vivo at 30 mg/kg (serum lipid level; [7]): -10%
3 | CC(O)c1nccn1Cc1ccccc1 (stereo not drawn) [Example 2, 1-[1-benzylimidazolyl-(2)]-ethanol] | 1120 mg/kg | – | – | – | -24% | – | -3% | -4% | –
4 | CC(C)n1ccnc1C(O)C(Cl)(Cl)Cl (stereo not drawn) [Example 3, 1-[1-Isopropylimidazolyl-(2)]-2,2,2-trichloroethanol] | > 4000 mg/kg | – | – | – | – | – | – | – | change in vivo at 30 mg/kg (serum lipid level; [13]): -16%; change in vivo at 100 mg/kg (serum lipid level; [13]): -6%; change in vivo at 100 mg/kg (serum lipid level; read-out: % change of Serum-Cholesterin, treated group vs placebo group): -18%; change in vivo at 30 mg/kg (serum lipid level; [14]): -21%; change in vivo at 100 mg/kg (serum lipid level; [14]): -57%; change in vivo at 30 mg/kg (serum lipid level; [15]): -6%; change in vivo at 100 mg/kg (serum lipid level; [15]): -30%
5 | OC1(c2nccn2Cc2ccccc2)c2ccccc2-c2ccccc21 [Example 4, 9-[1-Benzylimidazolyl-(2)]-fluorene-9-ol] | > 4000 mg/kg | -11% | -25% | – | -16% | -48% | -21% | -37% | –
6 | Cn1ccnc1C(O)(c1ccccc1)c1ccc(Cl)cc1Cl (stereo not drawn) [Example 5, Phenyl-(2,4-dichlorophenyl)-[1-methylimidazolyl-(2)]-carbinol] | > 4000 mg/kg | -23% | -1% | -17% | -19% | -37% | -32% | -35% | change in vivo at 30 mg/kg (serum lipid level; [7]): -9%
7 | Cn1c(C(O)(c2ccccc2)c2ccc(Cl)cc2Cl)nc2ccccc21 (stereo not drawn) [Example 6, Phenyl-(2,4-dichlorophenyl)-[1-methylbenzimidazolyl-(2)]-carbinol] | > 4000 mg/kg | -20% | -19% | -29% | -12% | -46% | -25% | -35% | –
8 | OC(c1ccccc1)(c1ncc[nH]1)c1ncc[nH]1 [Example 7, Bis-[imidazolyl-(2)]-phenyl-carbinol] | > 4000 mg/kg | – | – | – | -7% | -18% | – | -18% | solubility (in words) [3]: not soluble or poorly soluble only in the usual solvents
9 | CC(C)n1ccnc1C(C)(O)c1ccc(Cl)cc1 (stereo not drawn) [Example 8, Methyl-(p-chlorophenyl)-[1-isopropylimidazolyl-(2)]-carbinol] | > 4000 mg/kg | – | – | – | -14% | -39% | – | -21% | –
10 | Cn1c(C(O)c2nccn2Cc2ccccc2)nc2ccccc21 (stereo not drawn) [Example 9, [1-Benzylimidazolyl-(2)]-[1-methylbenzimidazolyl-(2)]-carbinol] | > 4000 mg/kg | – | – | – | -21% | -40% | -11% | -24% | –
11 | CC(O)(c1ccc(OC(F)(F)C(F)Cl)cc1)c1nccn1Cc1ccccc1 (stereo not drawn) [Example 10, 1-[p-(1,1,2-trifluoro-2-chloro-ethoxy)-phenyl]-1-[1-benzylimidazolyl-(2)]-ethanol] | > 4000 mg/kg | – | – | – | -36% | -56% | -21% | -26% | –
12 | COc1ccc(C(O)c2nccn2-c2ccccc2)cc1OC (stereo not drawn) [Example 11, (3,4-Dimethoxy-phenyl)-[1-phenylimidazolyl-(2)]-carbinol] | > 4000 mg/kg | – | – | – | -24% | -32% | -3% | -21% | –
